From BindingDB's records for doi:10.1016/s0960-894x(99)00486-2 (Dupont Pharmaceuticals, 1999)

What follows are compounds tested against T1, Gag-Pol polyprotein [588-1027]/[588-1147] (Human immunodeficiency virus 1, UniProt P04585) (assay: HIV-1 RT Assay). Conditions: pH 8.2; 37 °C.
T1 construct: 588-1027; 588-1147
Excerpt: The IC50 of reverse transcriptase is the concentration that inhibits 50% of recombinant HIV-1 RT RNA-directed DNA polymerase activity in vitro.

Compound | IC50
O=C1Nc2c(cc(F)c(F)c2F)C(C#CC2CC2)(C(F)(F)F)O1 (stereo not drawn) [4-(2-cyclopropylethynyl)-6,7,8-trifluoro-4-(trifluoromethyl)-2,4-dihydro-1H-3,1-benzoxazin-2-one] | > 2 µM
O=C1Nc2ccc(-c3ccccc3)cc2C(C#CC2CC2)(C(F)(F)F)O1 (stereo not drawn) [4-(2-cyclopropylethynyl)-6-phenyl-4-(trifluoromethyl)-2,4-dihydro-1H-3,1-benzoxazin-2-one] | > 2 µM
O=C1Nc2c(Cl)cc(Cl)cc2C(C#CC2CC2)(C(F)(F)F)O1 (stereo not drawn) [6,8-dichloro-4-(2-cyclopropylethynyl)-4-(trifluoromethyl)-2,4-dihydro-1H-3,1-benzoxazin-2-one] | > 2 µM
